Laboratory results published in patent publication US6194387A, “6-O-aklyl erythromycin B oxime” (Abbott Laboratories, priority 1999, dated 2001).
Converted amounts (≈) assume the structure as drawn. Like-named read-outs stand apart in the source and are kept apart here.

Assays:
M[…] [1] = experiment: in vitro antibacterial activity, agar dilution MIC; type: cell-based, Micrococcus pyogenes; conditions: Staphylococcus aureus, ATCC9341, read-out: SMIC
Protocol: (§1) 6-O-Methyl-9-oxime erythromycin B prepared in accordance with Examples 1 and 2 was assayed in vitro for anitbacterial activity as follows: Twelve petri dishes containing successive aqueous dilutions of the test compound mixed with 10 mL of sterilized Brain Heart Infusion (BHI) agar (Difco 0418-01-5) were prepared. Each plate was inoculated with 1:100 (or 1:10 for slow-growing strains, such as Micrococcus and Streptococcus) dilutions of up to 32 different micoorganisims, using a Steers replicatore block. The inoculated plates were incubated at 35-37° C. for 20 to 24 hours. In addition, a control plate, using BHI agar containing no test compound, was prepared and incubated at the beginning and end of each test.
(§2) An additional plate containing a compound having known susceptibility patterns for the organisms being tested and belonging to the same antibiotic class as the test compound was also prepared and incubated as further control, as well as to provide test-to-test comparability. Erythromycin A was used for this purpose.
(§3) After incubation, each disk was read. The minimum inhibitory concentration (MIC) was defined as the lowest concentration of drug yielding no growth, a slight haze, or sparsely isolated colonies on the inoculum spot as compared to the growth control.

M[…] [2] = experiment: in vitro antibacterial activity, agar dilution MIC; type: cell-based; conditions: Micrococcus luteus, ATCC4698, read-out: SMIC
Protocol: as §1, §2, §3

PROVIDENCIA STUART II = experiment: in vitro antibacterial activity, agar dilution MIC; type: cell-based; conditions: read-out: SMIC
Protocol: as §1, §2, §3

EN[…] [3] = experiment: in vitro antibacterial activity, agar dilution MIC; type: cell-based; conditions: Enterococcus faecium, ATCC8043, read-out: SMIC
Protocol: as §1, §2, §3

[4] = tested on: ACINETOBACTER CALCOACETICUS; experiment: in vitro antibacterial activity, agar dilution MIC; type: cell-based; conditions: read-out: SMIC
Protocol: as §1, §2, §3

STAPHYLOCOCCUS AUREUS = experiment: in vitro antibacterial activity, agar dilution MIC; type: cell-based
Protocol: as §1, §2, §3

NOCARDIA ASTEROIDES = experiment: in vitro antibacterial activity, agar dilution MIC; type: cell-based; conditions: ATCC9970, Table 2, ATCC 9970, read-out: SMIC
Protocol: as §1, §2, §3

STAPHYLOCOCCUS BOVIS = experiment: in vitro antibacterial activity, agar dilution MIC; type: cell-based; conditions: read-out: SMIC
Protocol: as §1, §2, §3

KLEBSIELLA PNEUMONIAE = experiment: in vitro antibacterial activity, agar dilution MIC; type: cell-based; conditions: ATCC8045, read-out: SMIC
Protocol: as §1, §2, §3

PSEUDOMONAS CEPACIA = experiment: in vitro antibacterial activity, agar dilution MIC; type: cell-based; conditions: Burkholderia cepacia; Table 2; 2961; read-out: SMIC
Protocol: as §1, §2, §3

HAEMOPHILUS INFLUENZAE = experiment: in vitro antibacterial activity, agar dilution MIC; type: cell-based
Protocol: as §1, §2, §3

[5] = tested on: STAPHYLOCOCCUS PNEUMONIAE; experiment: in vitro antibacterial activity, agar dilution MIC; type: cell-based
Protocol: as §1, §2, §3

STAPHYLOCOCCUS PYOGENES = experiment: in vitro antibacterial activity, agar dilution MIC; type: cell-based
Protocol: as §1, §2, §3

MYCOBACTERIIUM SMEGMATIS = experiment: in vitro antibacterial activity, agar dilution MIC; type: cell-based; conditions: read-out: SMIC
Protocol: as §1, §2, §3

[6] = tested on: STAPHYLOCOCCUS EPIDERMIDIS; experiment: in vitro antibacterial activity, agar dilution MIC; type: cell-based; conditions: read-out: SMIC
Protocol: as §1, §2, §3

PSEUDOMONAS AERUGINOSA = experiment: in vitro antibacterial activity, agar dilution MIC; type: cell-based
Protocol: as §1, §2, §3

EN[…] [7] = experiment: in vitro antibacterial activity, agar dilution MIC; type: cell-based, Enterobacter aerogenes; conditions: Klebsiella aerogenes, ATCC13048, read-out: SMIC
Protocol: as §1, §2, §3

STAP[…] = experiment: in vitro antibacterial activity, agar dilution MIC; type: cell-based, Staphylococcus agalactiae; conditions: Staphylococcus, read-out: SMIC
Protocol: as §1, §2, §3

CANDIDA ALBICANS = experiment: in vitro antimicrobial activity, agar dilution MIC; type: cell-based; conditions: read-out: SMIC
Protocol: as §1, §2, §3

## CC[C@H]1OC(=O)[C@H](C)[C@@H](O[C@H]2C[C@@](C)(OC)[C@@H](O)[C@H](C)O2)[C@H](C)[C@@H](O[C@@H]2O[C@H](C)C[C@H](N(C)C)[C@H]2O)[C@](C)(O)C[C@@H](C)C(=O)[C@H](C)[C@@H](O)[C@]1(C)O [Erythromycin A, reference compound]
M[…] [1]
  MIC: 0.01 µg/mL (≈ 0.0136 µM)
M[…] [2]
  MIC: 0.39 µg/mL (≈ 0.531 µM)
PROVIDENCIA STUART II
  MIC: > 100 µg/mL
EN[…] [3]
  MIC: 0.05 µg/mL (≈ 0.0681 µM)
[4]
  MIC: 12.5 µg/mL (≈ 17 µM)
STAPHYLOCOCCUS AUREUS; ATCC6538P, read-out: SMIC, Table 2, ATCC 6538P
  MIC: 0.39 µg/mL (≈ 0.531 µM)
STAPHYLOCOCCUS AUREUS; read-out: SMIC, Table 2, 1775
  MIC: > 100 µg/mL
STAPHYLOCOCCUS AUREUS; read-out: SMIC, Table 2, A5177
  MIC: 12.5 µg/mL (≈ 17 µM)
STAPHYLOCOCCUS AUREUS; read-out: SMIC, Table 2, A-5278
  MIC: > 100 µg/mL
STAPHYLOCOCCUS AUREUS; read-out: SMIC, Table 2, CMX 553
  MIC: 0.39 µg/mL (≈ 0.531 µM)
STAPHYLOCOCCUS AUREUS; read-out: SMIC, Table 2, CMX 642A
  MIC: 0.39 µg/mL (≈ 0.531 µM)
STAPHYLOCOCCUS AUREUS; read-out: SMIC, Table 2, NCTC10649M
  MIC: 0.39 µg/mL (≈ 0.531 µM)
NOCARDIA ASTEROIDES
  MIC: 0.005 µg/mL (≈ 0.00681 µM)
STAPHYLOCOCCUS BOVIS
  MIC: 0.01 µg/mL (≈ 0.0136 µM)
KLEBSIELLA PNEUMONIAE
  MIC: > 100 µg/mL
PSEUDOMONAS CEPACIA
  MIC: > 100 µg/mL
HAEMOPHILUS INFLUENZAE; ATCC10211, read-out: SIMC, Table 3, ATCC 10211
  MIC: 8 µg/mL (≈ 10.9 µM)
HAEMOPHILUS INFLUENZAE; ATCC19418, read-out: SIMC, Table 3, ATCC 19418
  MIC: 8 µg/mL (≈ 10.9 µM)
HAEMOPHILUS INFLUENZAE; ATCC43095, read-out: SIMC, Table 3, ATCC 43095
  MIC: 1 µg/mL (≈ 1.36 µM)
HAEMOPHILUS INFLUENZAE; read-out: SIMC, Table 3, CMX 503B
  MIC: 8 µg/mL (≈ 10.9 µM)
HAEMOPHILUS INFLUENZAE; read-out: SIMC, Table 3, CMX 504
  MIC: 8 µg/mL (≈ 10.9 µM)
HAEMOPHILUS INFLUENZAE; read-out: SIMC, Table 3, CMX 519A
  MIC: 4 µg/mL (≈ 5.45 µM)
HAEMOPHILUS INFLUENZAE; read-out: SIMC, Table 3, CMX 566A
  MIC: 4 µg/mL (≈ 5.45 µM)
HAEMOPHILUS INFLUENZAE; read-out: SIMC, Table 3, CMX 588A
  MIC: 4 µg/mL (≈ 5.45 µM)
HAEMOPHILUS INFLUENZAE; read-out: SIMC, Table 3, CMX 632A
  MIC: 4 µg/mL (≈ 5.45 µM)
HAEMOPHILUS INFLUENZAE; read-out: SIMC, Table 3, CMX 747C
  MIC: 8 µg/mL (≈ 10.9 µM)
HAEMOPHILUS INFLUENZAE; read-out: SIMC, Table 3, CMX 751
  MIC: 8 µg/mL (≈ 10.9 µM)
HAEMOPHILUS INFLUENZAE; read-out: SIMC, Table 3, GYR 1177
  MIC: 0.25 µg/mL (≈ 0.341 µM)
HAEMOPHILUS INFLUENZAE; read-out: SIMC, Table 3, GYR 1435
  MIC: 2 µg/mL (≈ 2.73 µM)
HAEMOPHILUS INFLUENZAE; read-out: SIMC, Table 3, SOL AMP R
  MIC: 4 µg/mL (≈ 5.45 µM)
HAEMOPHILUS INFLUENZAE; read-out: SIMC, Table 3, SPK AMP R
  MIC: 4 µg/mL (≈ 5.45 µM)
[5]; read-out: SIMC, Table 3, 5649
  MIC: 8 µg/mL (≈ 10.9 µM)
[5]; read-out: SIMC, Table 3, 5654
  MIC: 16 µg/mL (≈ 21.8 µM)
[5]; read-out: SIMC, Table 3, 5728
  MIC: 128 µg/mL (≈ 174 µM)
[5]; read-out: SIMC, Table 3, 5737
  MIC: 128 µg/mL (≈ 174 µM)
[5]; read-out: SIMC, Table 3, 5979
  MIC: 128 µg/mL (≈ 174 µM)
[5]; read-out: SIMC, Table 3, GYR 1171
  MIC: 0.03 µg/mL (≈ 0.0409 µM)
STAPHYLOCOCCUS PYOGENES; read-out: SIMC, Table 3, 930
  MIC: 128 µg/mL (≈ 174 µM)
STAPHYLOCOCCUS PYOGENES; read-out: SIMC, Table 3, EES61
  MIC: 0.03 µg/mL (≈ 0.0409 µM)
STAPHYLOCOCCUS PYOGENES; read-out: SIMC, Table 3, PIU 2548
  MIC: 16 µg/mL (≈ 21.8 µM)
STAPHYLOCOCCUS PYOGENES; read-out: SMIC, Table 2, 930
  MIC: > 100 µg/mL
STAPHYLOCOCCUS PYOGENES; read-out: SMIC, Table 2, EES61
  MIC: 0.01 µg/mL (≈ 0.0136 µM)
STAPHYLOCOCCUS PYOGENES; read-out: SMIC, Table 2, PIU 2548
  MIC: 6.2 µg/mL (≈ 8.45 µM)
MYCOBACTERIIUM SMEGMATIS
  MIC: 12.5 µg/mL (≈ 17 µM)
[6]
  MIC: 0.2 µg/mL (≈ 0.273 µM)
PSEUDOMONAS AERUGINOSA; read-out: SMIC, Table 2, 5007
  MIC: > 100 µg/mL
PSEUDOMONAS AERUGINOSA; read-out: SMIC, Table 2, BMH10
  MIC: 100 µg/mL (≈ 136 µM)
PSEUDOMONAS AERUGINOSA; read-out: SMIC, Table 2, DPHD-2862
  MIC: > 100 µg/mL
PSEUDOMONAS AERUGINOSA; read-out: SMIC, Table 2, DPHD-5263
  MIC: > 100 µg/mL
PSEUDOMONAS AERUGINOSA; read-out: SMIC, Table 2, K799/61
  MIC: 0.78 µg/mL (≈ 1.06 µM)
PSEUDOMONAS AERUGINOSA; read-out: SMIC, Table 2, K799/wt
  MIC: > 100 µg/mL
EN[…] [7]
  MIC: > 100 µg/mL
STAP[…]
  MIC: 0.01 µg/mL (≈ 0.0136 µM)
CANDIDA ALBICANS
  MIC: > 100 µg/mL
